Measured values reported in US11680885B2, “Method, process, composition and kit for measuring concentration of molecules dissolved in the continuous phase of a colloid” (UNIVERSIDAD TÉCNICA FEDERICO SANTA MARÍA, priority 2017, dated 2023).

Assay: Measurement of concentration of molecules dissolved in the continuous phase of the standard AuNP@MUA colloid (centrifugation, RP-HPLC with UV-visible detection)
Assay type: physicochemical
Details: n=3; for concentration in the control samples, equivalent to the continuous phase of the colloid: control samples: particle-free solution extracted from the colloid, 2.00 μM molecule added; for concentration of molecules dissolved in the continuous phase of the standard AuNP@MUA colloid: test samples, after incorporating 2.00 μM of the molecule into the colloid, centrifuged 24,000×g 15 min, average
Description: In general terms, the concentration of molecules dissolved in a fraction of the particle free colloid is measured. To evaluate this, in a first part the method obtains a test sample and a control sample. The test sample contains molecules dissolved in a colloid, and the control sample contains the same concentration of molecules dissolved in a particle-free solution extracted from the same colloid used to obtain the test sample. […] Subsequently, the samples are exposed to a condition that allows the particles of the test sample to be concentrated. […] Then, a particle-free volume is recovered from the test sample. The fraction recovered is equivalent to the continuous phase of the colloid and includes the effect of the interaction between molecules and particles. Finally, the concentration of molecules dissolved in the continuous phase of the colloid is measured using equation 1:
[formula] where [FC] corresponds to the concentration of molecules dissolved in the continuous phase of a colloid, [ ]0 corresponds to the value of the concentration of molecules used during the sampling steps, @mp corresponds to the empirical value of a parameter proportional to the number of molecules contained in a volume of particle-free test sample, and @mc corresponds to the empirical value of the same parameter proportional to the number of molecules contained in a volume of control sample. The concentration value obtained from this equation is equivalent to the concentration of molecules dissolved in the continuous phase of the colloid. […]
[formula] • where [FC] corresponds to the concentration of molecules dissolved in the continuous phase of a colloid, [ ]0 corresponds to the value of the concentration of molecules used during the sampling steps, @mp corresponds to the empirical value of a parameter proportional to the number of molecules contained in a volume of particle-free test sample obtained in step f), and @mc corresponds to the empirical value of the same parameter, but measured in the control sample obtained in step g).

In the case of `CN(C)c1ccc(N=Nc2ccc(S(=O)(=O)[O-])cc2)cc1.[Na+]` [methyl orange], the “concentration in the control samples, equivalent to the continuous phase of the colloid” value is reported as 2000 nM and the “concentration of molecules dissolved in the continuous phase of the standard AuNP@MUA colloid” value is reported as 2000 nM.

With `CN(C)c1ccc2nc3ccc(=[N+](C)C)cc-3sc2c1` [methylene blue] the “concentration in the control samples, equivalent to the continuous phase of the colloid” value was 2000 nM and the “concentration of molecules dissolved in the continuous phase of the standard AuNP@MUA colloid” value was 1170 nM.
